Data: article PMC3048764 (Brain research, 2010)

Tests used:
uterine weights = assay: Uterine weight; conditions: 1 day of exposure
[1] = test system: HT-22 (murine hippocampal) cells; conditions: cited from earlier work; for neuroprotection against toxicity, in words: compared with βE2 or parent compound, ref Perez et al., 2005b; for neuroprotection of non-phenolic estrogens, in words: all of the structure-activity studies
ERα = conditions: competitive binding; ref Perez et al. (2005b); cited from earlier work
ERβ = conditions: competitive binding; ref Perez et al. (2005b); cited from earlier work
[2] = test system: HT-22 (murine hippocampal) cells; format: cell-based; conditions: insult not named
[3] = test system: HT-22 (murine hippocampal) cells; conditions: cited from earlier work
[4] = test system: SK-N-SH neuroblastoma cells; conditions: up to 200 nM; ref Green et al. (1997b); cited from earlier work
[5] = test system: HT-22 (murine hippocampal) cells; assay: Neuroprotection against glutamate toxicity, calcein-AM viability assay; format: cell-based; conditions: 10 μM concentration, paradigm of Behl's group (1997)
HT-22 cells = assay: DCF assay of reactive oxygen species, glucose oxidase insult; format: cell-based; conditions: HT-22 cells insulted with glucose oxidase
[6] = test system: lipid peroxidation in rat brain homogenates; conditions: read-out: IC50 of lipid peroxidation seen by other groups; ref Hall et al., 1991; cited from earlier work

Compound: C[C@]12CC[C@@H]3c4ccc(O)cc4CC[C@H]3[C@@H]1CCC2=O [Compound E1, estrone]
- increase of uterine weights (uterine weights): 71%

Compound: C[C@]12CC(O)[C@@H]3c4ccc(O)cc4CC[C@H]3[C@@H]1CCC2=O (stereo partly shown) [Compound E1240]
- neuroprotection against toxicity, in words [1]: neuroprotection was completely abolished

Compound: CC12CCC3c4ccc(O)cc4CCC3C1CCC2O (stereo not shown) [PS2]
- neuroprotection against toxicity, in words [1]: reduced neuroprotective potencies

Compound: C[C@]12CC=C3c4ccc(O)cc4CC[C@H]3[C@@H]1CC[C@@H]2O [ZYC1]
- ERα binding, in words (ERα): did not drastically change the affinity
- ERβ binding, in words (ERβ): did not drastically change the affinity

Compound: C[C@]12CC[C@@H]3c4ccc(O)cc4CC[C@H]3[C@@H]1CC1(CCCC1)C2=O [ZYC2]
- neuroprotection against toxicity, in words [1]: did not enhance neuroprotection

Compound: CCC(C)c1c(O)ccc2c1CC[C@@H]1[C@@H]2CC[C@]2(C)C(=O)CC[C@@H]12 (stereo partly shown) [ZYC17]
- ERα binding, in words (ERα): completely inhibited estrogen receptor binding
- ERβ binding, in words (ERβ): completely inhibited estrogen receptor binding

Compound: COc1cc2c(cc1C13CC4CC(CC(C4)C1)C3)[C@H]1CC[C@]3(C)[C@@H](O)CC[C@H]3[C@@H]1CC2 [ZYC23, 3-O-methyl analog of (17beta)-2-(1-adamantyl)estradiol]
- neuroprotection against toxicity, in words [1]: failed to protect cells against toxicity induced cell death

Compound: Cc1c(O)c(C23CC4CC(CC(C4)C2)C3)cc2c1CC[C@@H]1[C@@H]2CC[C@]2(C)C(=O)CC[C@@H]12 [ZYC26, 2-(1-adamantyl)-4-methylestrone]
- fold decrease in EC50 for protection against neurotoxicity, first value ([2]; first of two values given 'respectively'): approximately 9 fold
- fold decrease in EC50 for protection against neurotoxicity, second value ([2]; second of two values given 'respectively'): ~4 fold
- ERα binding, in words (ERα): completely abolished the affinity
- ERβ binding, in words (ERβ): completely abolished the affinity

Compound: C[C@]12CC[C@@H]3c4ccc(O)cc4CC[C@H]3[C@@H]1CC[C@@H]2OC(=O)c1ccccc1 [ZYC30]
- neuroprotection against toxicity, in words [1]: decreased the potency of the parent compound

Compound: C#C[C@]1(O)CC[C@H]2[C@@H]3CCc4cc(OC)ccc4[C@H]3CC[C@@]21C [mestranol]
- neuroprotection of non-phenolic estrogens, in words [1]: did not have protect effects

Compound: CC(=O)[C@H]1CC[C@H]2[C@@H]3CC[C@@H]4C[C@H](O)CC[C@]4(C)[C@H]3CC[C@]12C [pregnanolone]
- protection against glutamate insult at high dose ([3]; 10 μM dose, ref Gursoy et al. (2001)): no protection
- concentration of optimal protection against glutamate insult ([3]; ref Gursoy et al. (2001)): 500 nM

Compound: CC(=O)[C@H]1CC[C@H]2[C@@H]3CCC4=CC(=O)CC[C@]4(C)[C@H]3CC[C@]12C [progesterone]
- neuroprotection against glutamate insult ([3]; 10 μM, ref Behl et al. (1997)): did not find 10 μM progestrone (P4) to be neuroprotective
- protection against serum deprivation [4]: did not find progesterone to be protectiive

Compound: C#C[C@]1(O)CC[C@H]2[C@@H]3CCc4cc(OC5CCCC5)ccc4[C@H]3CC[C@@]21C [quinestrol]
- neuroprotection of non-phenolic estrogens, in words [1]: did not have protect effects

Compound: C[C@]12CC[C@@H]3c4ccc(O)cc4CC[C@H]3[C@@H]1CC[C@H]2O [αE2]
- ERα binding, in words (ERα): less affinity
- ERβ binding, in words (ERβ): less affinity

Compound: C[C@]12CC[C@@H]3c4ccc(O)cc4CC[C@H]3[C@@H]1CC[C@@H]2O [βE2, 17β-estradiol]
- protection against glutamate toxicity at fixed concentration [5]: protective
- decrease of ROS (HT-22 cells): not able to significantly decrease ROS
- IC50 [6]: 21 µM
